Results: article PMC3904261 (British Journal of Pharmacology, 2013)
Each block holds one molecule with its values, some of them ahead of it. Bridge positions count the residues as written; N and C are the ends. Ends that are not written are not given here.

Legend:
[1] = biological target: T1, AMY1(a) receptor (Homo sapiens, UniProt O60894+P30988); assay: cAMP production in Cos 7 cells via the AMY1(a) receptor; type: cell-based; details: AlphaScreen, means ± SEM, n = 3–6
T1 construct: HA; expressed in transfected cells; host or cells: Cos 7
T1 sequence (P30988 25-474): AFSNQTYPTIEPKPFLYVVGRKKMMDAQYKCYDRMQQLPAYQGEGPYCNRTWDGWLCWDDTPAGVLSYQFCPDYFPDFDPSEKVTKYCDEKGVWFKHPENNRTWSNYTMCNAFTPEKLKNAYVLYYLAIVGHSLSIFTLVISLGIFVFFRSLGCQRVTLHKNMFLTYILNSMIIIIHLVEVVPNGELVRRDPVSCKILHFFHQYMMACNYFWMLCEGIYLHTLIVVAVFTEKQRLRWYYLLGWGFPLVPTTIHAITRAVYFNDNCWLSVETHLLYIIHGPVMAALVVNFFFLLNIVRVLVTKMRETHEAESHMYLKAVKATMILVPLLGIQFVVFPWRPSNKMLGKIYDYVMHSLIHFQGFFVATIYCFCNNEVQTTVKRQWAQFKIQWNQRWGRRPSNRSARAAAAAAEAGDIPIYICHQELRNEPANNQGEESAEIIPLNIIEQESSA
T1 sequence (O60894 27-148): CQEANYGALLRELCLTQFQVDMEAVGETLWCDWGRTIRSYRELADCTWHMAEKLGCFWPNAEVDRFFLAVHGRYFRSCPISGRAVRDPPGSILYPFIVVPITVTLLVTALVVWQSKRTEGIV
Procedure: SK-N-MC cells were grown in DMEM/F12 medium supplemented with 10% fetal calf serum as described previously (Poyner et al., [1998]). […] Production of cAMP in SK-N-MC cells for all analogues except [[…]]-hαCGRP was by a radioreceptor assay, as described previously (Poyner et al., [1998]). […] For [[…]]-hαCGRP, a different clone of SK-N-MC cells was used and cAMP production was measured via AlphaScreen (Perkin Elmer, Wellesley, MA, USA), as described previously ([…] et al., [2010]). This assay was also used to investigate the action of all derivatives at the AMY1(a) receptor and other experiments using Cos 7 cells. […] GraphPad Prism 5.00 or 6.00 (GraphPad Software Inc., San Diego, CA, USA) was used for data fitting. Concentration-response curves were fitted to a sigmoidal function with Hill slope constrained to unity to obtain pEC50 and maximum responses (Emax) values. Displacement curves were analysed to obtain pIC50 values. Schild plots were fitted by linear regression to obtain slope and intercepts. pEC50 and pIC50 values were compared with that of human αCGRP using Dunnett's test with either a normal or repeated measures one-way ANOVA, as appropriate.

[2] = biological target: T2, CGRP receptor (Homo sapiens, UniProt O60894+Q16602); assay: β-arrestin 2 translocation in CHO-K1 cells (PathHunter eXpress); type: cell-based; parameters: host or cells: CHO-K1 (PathHunter eXpress β-arrestin kit)
T2 sequence (Q16602 23-461): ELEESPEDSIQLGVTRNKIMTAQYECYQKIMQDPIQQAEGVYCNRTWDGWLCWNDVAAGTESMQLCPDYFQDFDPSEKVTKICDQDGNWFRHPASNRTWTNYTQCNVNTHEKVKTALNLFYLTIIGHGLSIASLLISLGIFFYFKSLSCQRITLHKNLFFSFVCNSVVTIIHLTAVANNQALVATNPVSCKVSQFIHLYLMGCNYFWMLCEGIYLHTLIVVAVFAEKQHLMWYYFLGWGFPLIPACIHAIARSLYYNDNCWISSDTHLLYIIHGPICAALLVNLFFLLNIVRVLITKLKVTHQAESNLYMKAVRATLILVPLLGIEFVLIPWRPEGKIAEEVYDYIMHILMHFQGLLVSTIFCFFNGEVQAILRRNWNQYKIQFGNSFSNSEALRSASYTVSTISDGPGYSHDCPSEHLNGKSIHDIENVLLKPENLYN
T2 sequence (O60894 27-148): as the sequence (O60894 27-148) above
Procedure: (§1) GraphPad Prism 5.00 or 6.00 (GraphPad Software Inc., San Diego, CA, USA) was used for data fitting. Concentration–response curves were fitted to a sigmoidal function with Hill slope constrained to unity to obtain pEC50 and maximum responses (Emax) values. Displacement curves were analysed to obtain pIC50 values. Schild plots were fitted by linear regression to obtain slope and intercepts. pEC50 and pIC50 values were compared with that of human αCGRP using Dunnett's test with either a normal or repeated measures one-way ANOVA, as appropriate.

[3] = biological target: T2, CGRP receptor; assay: Displacement of 125I-CGRP binding to SK-N-MC cell membranes; parameters: relative expression levels of the receptors (endogenous vs. overexpressed); endogenous in cells; host or cells: SK-N-MC cells (ECACC clone; ATCC clone for [Cys5]-CGRP); details: Binding (SK-N-MC) pKi CGRP analogue, 125I-CGRP displacement, SK-N-MC cell membranes; means ± SEM, n = 3–6; [Cys5] on a different batch of SK-N-MC cells
Procedure: as §1

[4] = biological target: T2, CGRP receptor; assay: cAMP production in SK-N-MC cells; type: cell-based; parameters: relative expression levels of the receptors (endogenous vs. overexpressed); endogenous in cells; host or cells: SK-N-MC cells (ECACC clone; ATCC clone for [Cys5]-CGRP); details: radioreceptor assay, approx. 10 min, means ± SEM, n = 3–6
Procedure: Production of cAMP in SK-N-MC cells for all analogues except [[…]]-hαCGRP was by a radioreceptor assay, as described previously (Poyner et al., [1998]). […] For [[…]]-hαCGRP, a different clone of SK-N-MC cells was used and cAMP production was measured via AlphaScreen (Perkin Elmer, Wellesley, MA, USA), as described previously ([…] et al., [2010]). This assay was also used to investigate the action of all derivatives at the AMY1(a) receptor and other experiments using Cos 7 cells. […] GraphPad Prism 5.00 or 6.00 (GraphPad Software Inc., San Diego, CA, USA) was used for data fitting. Concentration-response curves were fitted to a sigmoidal function with Hill slope constrained to unity to obtain pEC50 and maximum responses (Emax) values. Displacement curves were analysed to obtain pIC50 values. Schild plots were fitted by linear regression to obtain slope and intercepts. pEC50 and pIC50 values were compared with that of human αCGRP using Dunnett's test with either a normal or repeated measures one-way ANOVA, as appropriate.

[5] = biological target: AMY_(1(a)) receptor (human HA-tagged CT (a) receptor with human myc-tagged RAMP1) (human) (UniProt O60894)
Chain of AMY_(1(a)) receptor (human HA-tagged CT (a) receptor with human myc-tagged RAMP1) (human) (O60894 whole entry, looked up): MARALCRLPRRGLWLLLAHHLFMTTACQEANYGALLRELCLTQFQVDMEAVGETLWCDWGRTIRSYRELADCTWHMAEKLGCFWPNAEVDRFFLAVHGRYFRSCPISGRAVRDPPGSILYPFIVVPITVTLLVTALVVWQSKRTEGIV

[6] = biological target: T3, CGRP receptor (calcitonin receptor-like receptor in complex with receptor activity-modifying protein 1) (human (endogenous in SK-N-MC), UniProt Q16602 23-461; O60894 27-148); assay: cell-based or functional assay
T3 sequence (Q16602 23-461, chain 1 of 2): as the sequence (Q16602 23-461) above
T3 sequence (O60894 27-148, chain 2 of 2): as the sequence (O60894 27-148) above

[7] = biological target: T3, CGRP receptor (calcitonin receptor-like …); assay: radioligand binding; displacement of ^125I-CGRP from SK-N-MC cell membranes by unlabelled peptides, microcentrifugation-based binding assay; [Cys^5]-CGRP and its control on another batch of SK-N-MC cells; details: one partner purified
[8] = 2 h stimulation, means ± SEM, n = 3

Molecule: CC(C)C[C@H](NC(=O)CNC(=O)[C@H](C)NC(=O)[C@H](CC(C)C)NC(=O)[C@H](CCCNC(=N)N)NC(=O)[C@H](Cc1c[nH]cn1)NC(=O)[C@@H](NC(=O)[C@@H](NC(=O)[C@@H]1CSSC[C@H](NC(=O)[C@H](C)N)C(=O)N[C@@H](CC(=O)O)C(=O)N[C@@H]([C@@H](C)O)C(=O)N[C@@H](C)C(=O)N[C@@H](CO)C(=O)N1)C(C)C)[C@@H](C)O)C(=O)N[C@@H](CC(C)C)C(=O)N[C@@H](CO)C(=O)N[C@@H](CCCNC(=N)N)C(=O)N[C@@H](CO)C(=O)NCC(=O)NCC(=O)N[C@H](C(=O)N[C@H](C(=O)N[C@@H](CCCCN)C(=O)N[C@@H](CC(N)=O)C(=O)N[C@@H](CC(N)=O)C(=O)N[C@@H](Cc1ccccc1)C(=O)N[C@H](C(=O)N1CCC[C@H]1C(=O)N[C@H](C(=O)N[C@@H](CC(N)=O)C(=O)N[C@H](C(=O)NCC(=O)N[C@@H](CO)C(=O)N[C@@H](CCCCN)C(=O)N[C@@H](C)C(=O)N[C@@H](Cc1ccccc1)C(N)=O)C(C)C)[C@@H](C)O)C(C)C)C(C)C)C(C)C [[Ser^6]]
EC50 ([1]; AMY1(a) receptor-stimulated cAMP pEC50 CGRP analogue): 0.562 nM
AMY1(a) receptor-stimulated cAMP Emax (% CGRP) CGRP analogue [1]: 76 ± 19 % CGRP
β-Arrestin (CHO-K1) Emax (% CGRP) CGRP analogue [2, 8]: 57.3 ± 4.8 % CGRP
Emax ([2]; CHO-K1, CHO-K1 cells, compared with CGRP, read-out: reduction of Emax, β-arrestin 2 translocation): 40%
EC50 ([2]; β-Arrestin (CHO-K1) pEC50 CGRP analogue, 2 h stimulation, means ± SEM, n = 3): 8.51 nM
Ki [3]: 0.759 nM
EC50 ([4]; cAMP (SK-N-MC) pEC50 CGRP analogue): 53.7 nM
cAMP (SK-N-MC) Emax (% CGRP) CGRP analogue [4]: 100 ± 10 % CGRP

Molecule: CC(C)C[C@H](NC(=O)CNC(=O)[C@H](C)NC(=O)[C@H](CC(C)C)NC(=O)[C@H](CCCNC(=N)N)NC(=O)[C@H](Cc1c[nH]cn1)NC(=O)[C@@H](NC(=O)[C@@H](NC(=O)[C@@H]1CSSC[C@H](NC(=O)[C@H](C)N)C(=O)N[C@@H](CC(=O)O)C(=O)N[C@@H]([C@@H](C)O)C(=O)N[C@@H](C)C(=O)N[C@@H](CC(=O)O)C(=O)N1)C(C)C)[C@@H](C)O)C(=O)N[C@@H](CC(C)C)C(=O)N[C@@H](CO)C(=O)N[C@@H](CCCNC(=N)N)C(=O)N[C@@H](CO)C(=O)NCC(=O)NCC(=O)N[C@H](C(=O)N[C@H](C(=O)N[C@@H](CCCCN)C(=O)N[C@@H](CC(N)=O)C(=O)N[C@@H](CC(N)=O)C(=O)N[C@@H](Cc1ccccc1)C(=O)N[C@H](C(=O)N1CCC[C@H]1C(=O)N[C@H](C(=O)N[C@@H](CC(N)=O)C(=O)N[C@H](C(=O)NCC(=O)N[C@@H](CO)C(=O)N[C@@H](CCCCN)C(=O)N[C@@H](C)C(=O)N[C@@H](Cc1ccccc1)C(N)=O)C(C)C)[C@@H](C)O)C(C)C)C(C)C)C(C)C [[Asp^6]]
AMY1(a) receptor-stimulated cAMP pEC50 CGRP analogue [1]: Undetectable
β-Arrestin (CHO-K1) pEC50 CGRP analogue [2, 8]: Undetectable
Ki [3]: 31.6 nM
cAMP (SK-N-MC) pEC50 CGRP analogue [4]: Undetectable

Results, then the molecule that gave them:

AMY1(a) receptor-stimulated cAMP pEC50 CGRP analogue [1]: Undetectable
β-Arrestin (CHO-K1) pEC50 CGRP analogue [2, 8]: Undetectable
Ki [3]: 17.4 nM
cAMP (SK-N-MC) pEC50 CGRP analogue [4]: Undetectable
Molecule: CC(C)C[C@H](NC(=O)CNC(=O)[C@H](C)NC(=O)[C@H](CC(C)C)NC(=O)[C@H](CCCNC(=N)N)NC(=O)[C@H](Cc1c[nH]cn1)NC(=O)[C@@H](NC(=O)[C@@H](NC(=O)[C@@H]1CSSC[C@H](NC(=O)[C@H](C)N)C(=O)N[C@@H](CC(=O)O)C(=O)N[C@@H]([C@@H](C)O)C(=O)N[C@@H](C)C(=O)N[C@@H](CCCCN)C(=O)N1)C(C)C)[C@@H](C)O)C(=O)N[C@@H](CC(C)C)C(=O)N[C@@H](CO)C(=O)N[C@@H](CCCNC(=N)N)C(=O)N[C@@H](CO)C(=O)NCC(=O)NCC(=O)N[C@H](C(=O)N[C@H](C(=O)N[C@@H](CCCCN)C(=O)N[C@@H](CC(N)=O)C(=O)N[C@@H](CC(N)=O)C(=O)N[C@@H](Cc1ccccc1)C(=O)N[C@H](C(=O)N1CCC[C@H]1C(=O)N[C@H](C(=O)N[C@@H](CC(N)=O)C(=O)N[C@H](C(=O)NCC(=O)N[C@@H](CO)C(=O)N[C@@H](CCCCN)C(=O)N[C@@H](C)C(=O)N[C@@H](Cc1ccccc1)C(N)=O)C(C)C)[C@@H](C)O)C(C)C)C(C)C)C(C)C [[Lys^6]]

Emax (% CGRP), cAMP production in Cos 7 cells with the AMY (1(a)) receptor [5]: 108 % CGRP
pEC50, cAMP production in Cos 7 cells with the AMY (1(a)) receptor [5]: 8.9
Emax (% CGRP), cAMP production in SK-N-MC cells [6]: 116 % CGRP
Emax (% CGRP), β-arrestin 2 translocation in CHO-K1 cells expressing the human CGRP receptor [6]: 95 % CGRP
pEC50, cAMP production in SK-N-MC cells [6]: 8.27
pEC50, β-arrestin 2 translocation in CHO-K1 cells expressing the human CGRP receptor [6]: 8.43
pKi [7]: 9.54
B1: [Cys^3]-CGRP (peptide)
chain: ACCTATCVTHRLAGLLSRSGGVVKNNFVPTNVGSKAF-NH2
modifications: disulfide 2-7; N-terminus assumed
SMILES: CC(C)C[C@H](NC(=O)CNC(=O)[C@H](C)NC(=O)[C@H](CC(C)C)NC(=O)[C@H](CCCNC(=N)N)NC(=O)[C@H](Cc1c[nH]cn1)NC(=O)[C@@H](NC(=O)[C@@H](NC(=O)[C@@H]1CSSC[C@H](NC(=O)[C@H](C)N)C(=O)N[C@@H](CS)C(=O)N[C@@H]([C@@H](C)O)C(=O)N[C@@H](C)C(=O)N[C@@H]([C@@H](C)O)C(=O)N1)C(C)C)[C@@H](C)O)C(=O)N[C@@H](CC(C)C)C(=O)N[C@@H](CO)C(=O)N[C@@H](CCCNC(=N)N)C(=O)N[C@@H](CO)C(=O)NCC(=O)NCC(=O)N[C@H](C(=O)N[C@H](C(=O)N[C@@H](CCCCN)C(=O)N[C@@H](CC(N)=O)C(=O)N[C@@H](CC(N)=O)C(=O)N[C@@H](Cc1ccccc1)C(=O)N[C@H](C(=O)N1CCC[C@H]1C(=O)N[C@H](C(=O)N[C@@H](CC(N)=O)C(=O)N[C@H](C(=O)NCC(=O)N[C@@H](CO)C(=O)N[C@@H](CCCCN)C(=O)N[C@@H](C)C(=O)N[C@@H](Cc1ccccc1)C(N)=O)C(C)C)[C@@H](C)O)C(C)C)C(C)C)C(C)C

Emax (% CGRP), cAMP production in Cos 7 cells with the AMY (1(a)) receptor [5]: 76 % CGRP
pEC50, cAMP production in Cos 7 cells with the AMY (1(a)) receptor [5]: 9.25
Emax (% CGRP), cAMP production in SK-N-MC cells [6]: 100 % CGRP
Emax (% CGRP), β-arrestin 2 translocation in CHO-K1 cells expressing the human CGRP receptor [6]: 57.3 % CGRP
pEC50, cAMP production in SK-N-MC cells [6]: 7.27
pEC50, β-arrestin 2 translocation in CHO-K1 cells expressing the human CGRP receptor [6]: 8.07
pKi [7]: 9.12
Molecule: ACDTASCVTHRLAGLLSRSGGVVKNNFVPTNVGSKAF-NH2 (disulfide 2-7) [[Ser^6]-CGRP]
